Reference: US6815459B2, “Seleno compounds containing nitrone moiety, their preparation and their therapeutic uses” (Sam-Sung Electronics Co., Ltd., priority 2001, dated 2004)
pIC50: −log10 of the molar value. ≈ marks a conversion by molar mass, not a printed value. Like-named read-outs stand apart in the source and are kept apart here.

How the values were obtained:
[1] = Inhibition of lipid peroxidation of liposome (TBA method); format: biochemical; details: histidine-FeCl3/FeCl2, 37° C., 15 minutes, read-out: Inhibitor Concentration (IC50), lipid peroxidation
Protocol: The compounds of the present invention were tested for antioxidant effect in terms of the repression of the radical chain reaction of a multilayer liposome.
The liposome was prepared as followings: 30 mg of commercially available soybean phosphatidylcholine (PC, Sigma Chemical Co., U.S.A.) was dissolved in 1 mL of ethanol, and 200 of the ethanol/PC solution was added to 10 mL of 10 mM Tris buffer including 50 mM NaCl (pH 7.0) with stirring.
The ability of a compound to inhibit oxidation of the liposome was evaluated as followings: To 400 of the liposomes were added the test compound (in buffer or ethanol) and histidine-FeCl3 (167:33 μM final). Oxidation was initiated by the addition of FeCl2 (33 μM final prepared in nitrogen purged water). The mixtures were shaken at 37° C. for 15 minutes. […]. The aliquots were heated to 100° C. for 20 minutes. After ice cooling, 1 mL of chloroform was added to 1 mL of supernatant from tubes and tubes were centrifuged. The absorbances of the resulting supernatant were measured at 532 nm (see: Table 2).

[2] = Determination of water solubility (UV, saturated solution); format: physicochemical; details: 10 mM phosphate buffer (pH 7.4), stirred 3 hours, filtered; for solubility at 3 h: read-out: C′ (μM) = A′ (C/A), concentration of the saturated solution (water solubility)
Protocol: With a Beckman DUI® 7500 Spectrophotometer, the UV absorption maximum of each compound was determined by eventually diluting the solution with MeOH as necessary.
A saturated solution of each compound was then prepared by stirring magnetically a small volume of 10 mM phosphate buffer (pH 7.4) in the presence of an excess test compound for 3 hours. The obtained saturated solution was filtered in order to remove solid compound through a Gelman 0.45 m filter and scanned by UV at the wavelength of the absorption maximum previously determined.

[3] = tested on: ischemic neuronal degeneration in hippocampus; assay: Protection of cell damage by ischemia (in vivo); design: species or system Mongolian gerbils (Meriones unguiculatus); details: for Protective effects against ischemic neuronal degeneration: gerbil, 60 mg/kg P.O. 30 minutes after ischemic injury (post-treated), 4 days reperfusion
Description: Male Mongolian gerbils (Meriones unguiculatus) weighing 80-88 g were used in the present study. […] A midline ventral incision was made in the neck. Both common carotid arteries were isolated, freed of nerve fibers, and occluded using nontraumatic aneurysm clips. Complete interruption of blood flow was confirmed by observing the central artery in eyeballs using ophthalmoscope. After five minutes of occlusion, the aneurysm clips were removed from both common carotid arteries. Restoration of blood flow (reperfusion) was observed directly under the microscope. Sham-operated controls were subjected to the same surgical procedures except that common carotid arteries were not occluded. Body temperature was monitored and maintained at 37° C.±0.5° C. during surgery and during the immediate postoperative period until the animals recovered fully from anesthesia. At the designated reperfusion time (4 days), operated animals and sham animals were killed. Animals were perfused transcardially with phosphate-buffered saline (PBS, pH 7.4) followed by 4% paraformaldehyde in 0.1 M phosphate buffer (pH 7.4) at 4 days (n=7) after surgery. The brains were removed, and postfixed in the same fixative for 4 hours. The brain tissues were cryoprotected by infiltration with 30% sucrose overnight. Cornoy fixed specimens were cut into 30 sections on a cryostat, were sequentially stained by Cresyl violet dye. Images of staining in the hippocampus of each animal were captured with an […]. […] All data obtained from the quantitative data were analyzed using one-way ANOVA to determine statistical significance. Bonferroni's test was used for post-hoc comparisons. P values below 0.05 or 0.01 were considered statistically significant.

rats [4] = details: cited from earlier work
mice = details: oral administration; cited from earlier work
[5] = Glutathione peroxidase like activity (NADPH-glutathione reductase coupled system); format: biochemical; details: 50 μM compound; for Rate A340/min(30˜300 sec) / Rate/0.00622 (nmol NADPH/min/mL): 25° C.; for % Ebselen (glutathione peroxidase activity): relative to Ebselen
Protocol: Glutathione peroxidase like activity was determined by the reduction of GSSG formed via the NADPH-glutathione reductase system as an indicator system.
To 350 of 50 mM Tris-HCl(pH 7.6) containing 5 mM of EDTA (assay buffer) are added in the following order:
1) 350 of assay buffer containing 6.4 mM of reduced glutathione (GSH), 640 μM of […] (NADPH), and 1.6 unit/mL of glutathione disulfide reductase (GR)
2) 70 of 800 μM of the test compound which was dissolved in DMSO (i.e., each compound was tested at a final concentration of 50 μM)
3) 350 of 0.007% tert-butyl hydroperoxide which was made by 1/10,000 dilution of tert-butyl hydroperoxide with DDW.
The final reaction volume is 1120.
The reaction was carried out at 25° C. […] The said activity or initial enzymatic rate is proportional to the slope of the variation of absorbance with time.
The catalytic activity for oxygen reduction of the compounds tested corresponds to the rate of consumption of NADPH.
They are expressed in n-moles of NADPH consumed per minute.

rats [6] = assay: Acute toxicity LD50 in rats; format: in vivo

SMILES	pIC50 [1]	C′ (g/L = mg/mL), concentration of the saturated solution (water solubility) [2]	Protective effects against ischemic neuronal degeneration [3]	Rate A340/min(30˜300 sec) [5]	Rate/0.00622 (nmol NADPH/min/mL) [5]	% Ebselen (glutathione peroxidase activity) [5]	other results
CC(C)(C)[N+]([O-])=Cc1ccccc1S(=O)(=O)O [S-PBN, reference compound]	1.60						
O=c1c2ccccc2[se]n1-c1ccccc1 [Ebselen, reference compound]		0.001265 g/L = mg/mL	59%				solubility at 3 h ([2]; aqueous buffer, thermodynamic from solid): 4.62 µM (≈ 1.27 µg/mL); LD50 (rats [4]; intraperitoneal administration): 580 mg/kg; LD50 (rats [4]; oral administration): ≥ 6,810 mg/kg; LD50 (mice): ≥ 6,810 mg/kg
CC(C)/[N+]([O-])=C\c1cccc(-n2[se]c3ccccc3c2=O)c1 [Example 2, 2-[3-(N-isopropyl)nitronyl]phenyl-1,2-benzisoselenazol-3(2H)-one]	3.95			−0.125 A340/min	20.10 nmol NADPH/min/mL	105.96%	
CC(C)[N+]([O-])=Cc1csc(-n2[se]c3ccccc3c2=O)n1 [Example 5, 2-[4-(N-isopropyl)nitronyl]thiazol-2-yl-1,2-benzisoselenazol-3(2H)-one]	5.92	0.0414 g/L = mg/mL	61%	−0.125 A340/min	20.13 nmol NADPH/min/mL	106.11%	solubility at 3 h [2]: 113.029 µM (≈ 41.4 µg/mL); Neuroprotective effects compared with Ebselen ([3]; gerbil ischemia, 60 mg/kg P.O.): more neuroprotective effects against ischemic neuronal degeneration than Ebselen; LD50 (rats [6]; intraperitoneal administration in rats): ≥ 800 mg/kg; LD50 (rats [6]; oral administration in rats): ≥ 7,000 mg/kg
CC(C)/[N+]([O-])=C\c1ccc(Cn2[se]c3ccccc3c2=O)cc1 [Example 7, 2-[4-(N-isopropyl)nitronyl]benzyl-1,2-benzisoselenazol-3(2H)-one]	3.61			−0.084 A340/min	13.50 nmol NADPH/min/mL	71.17%	
CC(C)/[N+]([O-])=C/c1ccc(-n2[se]c3ccccc3c2=O)cc1 [Example 1, 2-[4-(N-isopropyl)nitronyl]phenyl-1,2-benzisoselenazol-3(2H)-one]	4.09			−0.141 A340/min	22.67 nmol NADPH/min/mL	119.50%	
